In US20110224300A1, “USE OF POTASSIUM 2-(a- HYDROXYPENTYL) BENZOATE IN THE MANUFACTURE OF MEDICAMENTS FOR PREVENTING AND/OR TREATING SENILE [sequence]” (Institute of Mataria Medica, Chinese Academy of Me, priority 2008, published 2011):

Key:
MDA = MDA level of brain tissues from permanent 2-VO rats; assay type: in vivo, rat; conditions: for MDA level in cortex: 21 days
Protocol: In 10 days after onset of 2-VO, drugs and vehicle were administered orally to rats for 21 days (one time/each day). The spatial learning and memory capability of rats were detected by Morris water maze in the 25-30 days after operation. The Morris water test was commenced at 40 min after drugs treated. The biochemical and pathology assays were conducted later (in 24 h) after behavioral tests.
(§1) The biochemical assays were conducted later (in 24 h) after behavioral testing. Eight rats in each group were anesthetized with ether and sacrificed. The brains were quickly removed and cleaned with ice-cold saline. Then the parietal cortex and hippocampus were isolated. For biochemical analysis, the tissues were weighed and homogenized in ice-cold saline with the proportion of 1:9 (w/v). Homogenization (IKA, Germany) was carried out for 2 min in an ice bath. After the homogenates were centrifuged at 2,000×g for 10 min at 4° C. (Sigma, Germany), the supernatant was used for analytical procedures. The levels of choline acetyltransferase (ChAT) SOD, and MDA activities were determined with commercial colorimetric assay kits (Nanjing Jiancheng Bioengineering Institute, China). The content of protein in the supernatant was determined by Bradford method using BSA as standard.

AChE = AChE activity of hippocampus from SAMP8 mice; assay type: in vivo; conditions: treatment up to 35 days, tendency only
Protocol: SAMP8 were divided into three experimental groups randomly: one vehicle control group, and two dl-PHPB-treated groups (50, and 160 mg/kg). Drugs and vehicle were administered orally to SAMP8 mice for 35 days (one time/each day). The spatial learning and memory abilities of SAMP8 mice were detected by Morris water maze and DTT-2 jumping apparatus in 31-35 days. The testing was commenced at 40 min after drugs treated. The biochemical and pathology assays conducted later (in 24 h) after behavioral testing.
(§2) The methods as described previously.

Mitochondrial ATPase = assay: Cortex mitochondrial ATPase activity in SAMP8 mice; assay type: in vivo; conditions: 160 mg/kg oral, 35 days, vehicle 8.58±0.21, significant
Protocol: as §1
SAMP8 were divided into three experimental groups randomly: one vehicle control group, and two dl-PHPB-treated groups (50, and 160 mg/kg). Drugs and vehicle were administered orally to SAMP8 mice for 35 days (one time/each day). The spatial learning and memory abilities of SAMP8 mice were detected by Morris water maze and DTT-2 jumping apparatus in 31-35 days. The testing was commenced at 40 min after drugs treated. The biochemical and pathology assays conducted later (in 24 h) after behavioral testing. […]

SOD = SOD activity of brain tissues from Aβ(25-35)-induced dementia rats; assay type: in vivo, Male Wistar rats; conditions: Aβ(25-35) rats; for SOD activity in the cortex: 2 weeks, vehicle 286.8±18.3
Protocol: as §1
Rats were divided into four experimental groups randomly (10 rats/each group): one sham-operated group, one vehicle control group, and two dl-PHPB-treated groups (39, and 129 mg/kg). At 1 days after operation, drugs and vehicle were administered orally to rats for 14 days (one time/each day). The spatial learning and memory abilities of rats were detected by Morris water maze in the 9-12 days after operation. The testing of Morris water was commenced at 40 min after drugs treated. The biochemical and pathology assays conducted later (in 24 h) after behavioral testing.
as §2

CCCCC(O)c1ccccc1C(=O)[O-].[K+] (racemic) [dl-PHPB, Potassium 2-(1-Hydroxypentyl)-benzoate]
MDA level in cortex (MDA; dl-PHPB 13 mg/kg): decreased MDA level | MDA level in cortex (MDA; dl-PHPB 39 mg/kg): decreased MDA level | MDA level in cortex (MDA; dl-PHPB 129 mg/kg): decreased MDA level | MDA level in hippocampus (MDA; hippocampus, doses not given): no significant effects | AChE activity in the hippocampus (AChE): might decrease AChE activity | ATPase activity (cortex mitochondria) (Mitochondrial ATPase): 9.82±0.51 U/mg protein | SOD activity in the cortex (SOD; 39 mg/kg oral): 238.2±32.7 U/mg protein | SOD activity in the cortex (SOD; 129 mg/kg oral, P<0.01): 185.2±21.6 U/mg protein | SOD activity in the hippocampus (SOD; hippocampus): not significantly improved
